Measurements taken from patent US20220265629A1, “TREATMENT OF SYSTOLIC DYSFUNCTION AND HEART FAILURE WITH REDUCED EJECTION FRACTION WITH THE COMPOUND (R)-4-(1-((3-(DIFLUOROMETHYL)-1-METHYL-1H-PYRAZOL-4-YL)SULFONYL)-1-FLUOROETHYL)-N-(ISOXAZOL-3-YL)PIPERIDINE-1-CARBOXAMIDE” (MyoKardia, Inc., priority 2019, published 2022).
Where two headings read alike, the source gives them in different places.

Experiment: Single ascending oral dose study in healthy volunteers: plasma pharmacokinetics
Assay type: in vivo, human
Settings: human, plasma, oral; for concentration at 48 h: 48 Hours Postdose; for concentration at 72 h: 72 Hours Postdose; for concentration at 6 h: 6 Hours Postdose; for concentration at 12 h: 12 Hours Postdose; for concentration at 24 h: 24 Hours Postdose
Description: This example describes the first-in-human study of Compound I. Based on its mechanism of action, Compound I may offer a targeted therapy for patients with DCM caused by genetic or nongenetic mechanisms. The study was a randomized, double-blind, placebo-controlled, sequential group, single-ascending (oral) close study in healthy subjects aged 18-55 years. Eight dosing cohorts, each comprising eight healthy subjects, were enrolled. Within each cohort, subjects were randomized 6:2 to Compound I:placebo.
Subjects were resident at the clinical site for up to 5 days and 4 nights, from Day −1 (the day before dosing) to Day 4, and received a single dose of Compound I or placebo on Day 1. ECG telemetry was initiated 1 hour preclose and continued through 48 hours postclose (Day 3). Any subject with a preclose resting HR≥80 beats per minute was considered ineligible and not treated. […] Subjects returned for a safety follow-up visit 7 days (±1 day) after dosing.
All randomized study subjects received either Compound I or matching placebo as a single oral dose after a fasting period of at least 6 hours. Compound I drug substance is a crystalline, free-base, synthetic molecule with a molecular weight of 435.4 g/mol.
Compound I was provided as a powder for oral suspension. Placebo was provided as calcium carbonate powder. Both treatments were closed orally as a suspension. The suspension was made using Ora-Plus® suspending vehicle (Perrigo) and a cherry syrup flavoring vehicle (Humco), mixed 50% to 50%. The suspension was followed by approximately 100 mL water. The suspension was made up within 14 days from the time in which it was closed which was consistent with the stability data on the suspension. The suspension was made up so the volume administered to the subjects who received Compound I was the same at 20 mL.
Each subject received a close according to the cohort in which they were enrolled. Cohorts were enrolled sequentially, with each cohort receiving an escalated dose of Compound I. The closes administered were 3 mg, 10 mg, 25 mg, 50 mg, 100 mg, 175 mg, 350 mg, and 525 mg, respectively.
The concentrations of Compound I in human plasma and urine were quantitated by high performance liquid chromatography with tandem mass spectrometric detection (LC MS/MS) (Biological sample analysis study report Alturas AD17-726). Plasma samples were extracted by protein precipitation with acetonitrile containing internal standard MYK-5654. The calibration curves were linear over concentration range of 0.500 to 1000 ng/mL with a lower limit of quantification (LLOQ) of 0.500 ng/mL.
The PK Population included all subjects who received Compound I. Blood samples were collected for PK assessments. The actual timing of the samples may have been modified and/or up to an additional 2 samples may have been requested by the SRC after review of the data from previous cohorts. It was important that PK sampling occurred as closely as possible to the scheduled time (±10%). Both blood and urine samples were used for PK assessments.
In addition, for subjects who received placebo, a single plasma sample near the predicted tmax of Compound I was evaluated to confirm the lack of circulating Compound I. Plasma concentration data for Compound I was summarized using descriptive statistics, including mean, standard deviation (SD), median, minimum, and maximum values, and percent coefficient of variation. Other PK parameters included (but were not limited to) Cmax, tmax, AUC, t1/2, and MRT. Additionally, the apparent terminal-phase terminal half-life was calculated. The close proportionality of AUC and Cmax was explored.

[1] = 10 mg, 10 mg, read-out: Plasma concentration, Median
[2] = 25 mg, 25 mg, read-out: Plasma concentration, Geometric Mean
[3] = 25 mg, 25 mg, read-out: Plasma concentration, Mean
[4] = 25 mg, 25 mg, read-out: Plasma concentration, Median
[5] = 50 mg, 50 mg, read-out: Plasma concentration, Geometric Mean
[6] = 50 mg, 50 mg, read-out: Plasma concentration, Mean
[7] = 50 mg, 50 mg, read-out: Plasma concentration, Median

Cn1cc(S(=O)(=O)[C@@](C)(F)C2CCN(C(=O)Nc3ccon3)CC2)c(C(F)F)n1 [Compound I, (R)-4-(1-((3-(difluoromethyl)-1-methyl-1H-pyrazol-4-yl)sulfonyl)-1-fluoroethyl)-N-(isoxazol-3-yl)piperidine-1-carboxamide]
concentration at 48 h [1]: 15.4 ng/mL | concentration at 72 h (10 mg, 10 mg, read-out: Plasma concentration, Geometric Mean): 4.5 ng/mL | concentration at 72 h (10 mg, 10 mg, read-out: Plasma concentration, Mean): 4.93 ng/mL | concentration at 72 h [1]: 4.01 ng/mL | AUC(0-t) (10 mg, read-out: AUC0-24, Geometric Mean): 2120 ng·h/mL | AUC(0-t) (10 mg, read-out: AUC0-24, Mean): 2140 ng·h/mL | AUC(0-t) (10 mg, read-out: AUC0-24, Median): 2250 ng·h/mL | AUC(0-t) (10 mg, read-out: AUC0-48, Geometric Mean): 2980 ng·h/mL | AUC(0-t) (10 mg, read-out: AUC0-48, Mean): 3030 ng·h/mL | AUC(0-t) (10 mg, read-out: AUC0-48, Median): 3190 ng·h/mL | AUC(0-t) (10 mg, read-out: AUC0-last, Geometric Mean): 3280 ng·h/mL | AUC(0-t) (10 mg, read-out: AUC0-last, Mean): 3350 ng·h/mL | AUC(0-t) (10 mg, read-out: AUC0-last, Median): 3420 ng·h/mL | AUC(0-inf) (10 mg, read-out: AUC0-∞, Geometric Mean): 3350 ng·h/mL | AUC(0-inf) (10 mg, read-out: AUC0-∞, Mean): 3410 ng·h/mL | AUC(0-inf) (10 mg, read-out: AUC0-∞, Median): 3480 ng·h/mL | Cmax (10 mg, read-out: Cmax, Geometric Mean): 138 ng/mL | Cmax (10 mg, read-out: Cmax, Mean): 139 ng/mL | Cmax (10 mg, read-out: Cmax, Median): 146 ng/mL | half-life (10 mg, read-out: Half-Life Lambda Z, Geometric Mean (converted)): 13.2 h | half-life (10 mg, read-out: Half-Life Lambda Z, Mean (converted)): 13.4 h | half-life (10 mg, read-out: Half-Life Lambda Z, Median (converted)): 12.9 h | MRT (10 mg, read-out: Mean Residence Time, Geometric Mean): 21.1 h | MRT (10 mg, read-out: Mean Residence Time, Mean): 21.2 h | MRT (10 mg, read-out: Mean Residence Time, Median): 20.1 h | Tmax (10 mg, read-out: Tmax, Geometric Mean): 4.8 h | Tmax (10 mg, read-out: Tmax, Mean): 4.85 h | Tmax (10 mg, read-out: Tmax, Median): 5 h | Vd/F (10 mg, read-out: Vz/F, Geometric Mean): 57.1 L | Vd/F (10 mg, read-out: Vz/F, Mean): 58.5 L | Vd/F (10 mg, read-out: Vz/F, Median): 55.8 L | concentration at 6 h [2]: 281 ng/mL | concentration at 6 h [3]: 286 ng/mL | concentration at 6 h [4]: 286 ng/mL | concentration at 12 h [2]: 205 ng/mL | concentration at 12 h [3]: 211 ng/mL | concentration at 12 h [4]: 223 ng/mL | concentration at 24 h [2]: 114 ng/mL | concentration at 24 h [3]: 118 ng/mL | concentration at 24 h [4]: 124 ng/mL | concentration at 48 h [2]: 33.3 ng/mL | concentration at 48 h [3]: 35.8 ng/mL | concentration at 48 h [4]: 35.5 ng/mL | concentration at 72 h [2]: 8.4 ng/mL | concentration at 72 h [3]: 9.78 ng/mL | concentration at 72 h [4]: 8.51 ng/mL | AUC(0-t) (25 mg, read-out: AUC0-24, Geometric Mean): 4550 ng·h/mL | AUC(0-t) (25 mg, read-out: AUC0-24, Mean): 4650 ng·h/mL | AUC(0-t) (25 mg, read-out: AUC0-24, Median): 4850 ng·h/mL | AUC(0-t) (25 mg, read-out: AUC0-48, Geometric Mean): 6320 ng·h/mL | AUC(0-t) (25 mg, read-out: AUC0-48, Mean): 6500 ng·h/mL | AUC(0-t) (25 mg, read-out: AUC0-48, Median): 6890 ng·h/mL | AUC(0-t) (25 mg, read-out: AUC0-last, Geometric Mean): 6920 ng·h/mL | AUC(0-t) (25 mg, read-out: AUC0-last, Mean): 7160 ng·h/mL | AUC(0-t) (25 mg, read-out: AUC0-last, Median): 7420 ng·h/mL | AUC(0-inf) (25 mg, read-out: AUC0-∞, Geometric Mean): 7050 ng·h/mL | AUC(0-inf) (25 mg, read-out: AUC0-∞, Mean): 7290 ng·h/mL | AUC(0-inf) (25 mg, read-out: AUC0-∞, Median): 7570 ng·h/mL | Cmax (25 mg, read-out: Cmax, Geometric Mean): 298 ng/mL | Cmax (25 mg, read-out: Cmax, Mean): 304 ng/mL | Cmax (25 mg, read-out: Cmax, Median): 313 ng/mL | half-life (25 mg, read-out: Half-Life Lambda Z, Geometric Mean (converted)): 13.1 h | half-life (25 mg, read-out: Half-Life Lambda Z, Mean (converted)): 13.3 h | half-life (25 mg, read-out: Half-Life Lambda Z, Median (converted)): 12.7 h | MRT (25 mg, read-out: Mean Residence Time, Geometric Mean): 20.6 h | MRT (25 mg, read-out: Mean Residence Time, Mean): 20.8 h | MRT (25 mg, read-out: Mean Residence Time, Median): 20.1 h | Tmax (25 mg, read-out: Tmax, Geometric Mean): 4.64 h | Tmax (25 mg, read-out: Tmax, Mean): 4.67 h | Tmax (25 mg, read-out: Tmax, Median): 5 h | Vd/F (25 mg, read-out: Vz/F, Geometric Mean): 67.3 L | Vd/F (25 mg, read-out: Vz/F, Mean): 68.6 L | Vd/F (25 mg, read-out: Vz/F, Median): 66.5 L | concentration at 6 h [5]: 424 ng/mL | concentration at 6 h [6]: 431 ng/mL | concentration at 6 h [7]: 420 ng/mL | concentration at 12 h [5]: 317 ng/mL | concentration at 12 h [6]: 322 ng/mL | concentration at 12 h [7]: 297 ng/mL | concentration at 24 h [5]: 175 ng/mL | concentration at 24 h [6]: 178 ng/mL | concentration at 24 h [7]: 174 ng/mL | concentration at 48 h [5]: 49.5 ng/mL | concentration at 48 h [6]: 51.9 ng/mL | concentration at 48 h [7]: 57.4 ng/mL | concentration at 72 h [5]: 13.5 ng/mL | concentration at 72 h [6]: 15.2 ng/mL | concentration at 72 h [7]: 18.8 ng/mL | AUC(0-t) (50 mg, read-out: AUC0-24, Geometric Mean): 7210 ng·h/mL | AUC(0-t) (50 mg, read-out: AUC0-24, Mean): 7300 ng·h/mL | AUC(0-t) (50 mg, read-out: AUC0-24, Median): 6730 ng·h/mL | AUC(0-t) (50 mg, read-out: AUC0-48, Geometric Mean): 9930 ng·h/mL | AUC(0-t) (50 mg, read-out: AUC0-48, Mean): 10100 ng·h/mL | AUC(0-t) (50 mg, read-out: AUC0-48, Median): 9500 ng·h/mL | AUC(0-t) (50 mg, read-out: AUC0-last, Geometric Mean): 11100 ng·h/mL | AUC(0-t) (50 mg, read-out: AUC0-last, Mean): 11200 ng·h/mL | AUC(0-t) (50 mg, read-out: AUC0-last, Median): 11200 ng·h/mL | AUC(0-inf) (50 mg, read-out: AUC0-∞, Geometric Mean): 11200 ng·h/mL | AUC(0-inf) (50 mg, read-out: AUC0-∞, Mean): 11300 ng·h/mL | AUC(0-inf) (50 mg, read-out: AUC0-∞, Median): 11200 ng·h/mL | Cmax (50 mg, read-out: Cmax, Geometric Mean): 490 ng/mL | Cmax (50 mg, read-out: Cmax, Mean): 500 ng/mL | Cmax (50 mg, read-out: Cmax, Median): 470 ng/mL | half-life (50 mg, read-out: Half-Life Lambda Z, Geometric Mean (converted)): 13.4 h | half-life (50 mg, read-out: Half-Life Lambda Z, Mean (converted)): 13.6 h | half-life (50 mg, read-out: Half-Life Lambda Z, Median (converted)): 13.8 h | MRT (50 mg, read-out: Mean Residence Time, Geometric Mean): 20.8 h | MRT (50 mg, read-out: Mean Residence Time, Mean): 21 h | MRT (50 mg, read-out: Mean Residence Time, Median): 21.5 h | Tmax (50 mg, read-out: Tmax, Geometric Mean): 4.66 h | Tmax (50 mg, read-out: Tmax, Mean): 4.69 h | Tmax (50 mg, read-out: Tmax, Median): 5 h | Vd/F (50 mg, read-out: Vz/F, Geometric Mean): 86.6 L
